Source: publication PMC2997755 (Clinical cancer research : an official journal of the …, 2009)
Where two headings read alike, the source gives them in different places.

Assays:
clinical = type: in vivo; details: for AUC(0-inf) / AUC(0-t) / clearance / Cmax / half-life: human, plasma
[1] = human, in vivo
[2] = Vorinostat serum pharmacokinetics, cycle 1; type: in vivo; details: for CL/F / AUC(0-inf) / AUC(0-t) / Cmax / half-life: mean (St dev); for AUC(0-inf) / AUC(0-t) / Cmax / half-life: human, serum, oral; for AUC(0-inf): AUCinf; for AUC(0-t): AUCt
[3] = cited from earlier work
[4] = Phase I safety and tolerability: DLTs, MTD, adverse events; details: sequential schedule dose level -1b; days 6-12, with decitabine 10 mg/m^2/day on days 1-5
[5] = 100 mg, Sequential schedule, 100 mg BID, day 9 of cycle 1
[6] = 200 mg, Concurrent schedule, 200 mg BID, day 4 of cycle 1
[7] = 200 mg, Sequential schedule, 200 mg BID, day 9 of cycle 1
[8] = 200 mg, Sequential schedule, 200 mg TID, day 9 of cycle 1
[9] = 200 mg, Concurrent schedule, 200 mg TID, day 4 of cycle 1

For `Nc1ncn([C@H]2C[C@H](O)[C@@H](CO)O2)c(=O)n1` [decitabine, 5-aza-2'-deoxycytidine], the “Pharmacokinetic parameters on day 1 versus day 5 within the same dose level” value (clinical; either schedule) was “No significant differences”, the AUC(0-inf) (clinical; intravenous, 10 mg/m2, AUCinf, Concurrent schedule, 10 mg/m^2, Day 1, mean (St dev)) was 77.6 ng·h/mL and the AUC(0-inf) (clinical; intravenous, 10 mg/m2, AUCinf, Concurrent schedule, 10 mg/m^2, Day 5, mean (St dev)) was 57.4 ng·h/mL. The AUC(0-inf) (clinical; intravenous, 10 mg/m2, AUCinf, Sequential schedule, 10 mg/m^2, Day 1, mean (St dev)) was 48.4 ng·h/mL, the AUC(0-inf) (clinical; intravenous, 10 mg/m2, AUCinf, Sequential schedule, 10 mg/m^2, Day 5, mean (St dev)) was 57.8 ng·h/mL and the AUC(0-t) (clinical; intravenous, 10 mg/m2, AUCt, Concurrent schedule, 10 mg/m^2, Day 1, mean (St dev)) was 75.8 ng·h/mL. It also gave an AUC(0-t) (clinical; intravenous, 10 mg/m2, AUCt, Concurrent schedule, 10 mg/m^2, Day 5, mean (St dev)) of 56.3 ng·h/mL, an AUC(0-t) (clinical; intravenous, 10 mg/m2, AUCt, Sequential schedule, 10 mg/m^2, Day 5, mean (St dev)) of 55.8 ng·h/mL and a clearance (clinical; intravenous, 10 mg/m2, CL, Concurrent schedule, 10 mg/m^2, Day 1, mean (St dev)) of 4670 mL/min. The clearance (clinical; intravenous, 10 mg/m2, CL, Concurrent schedule, 10 mg/m^2, Day 5, mean (St dev)) was 5570 mL/min, the clearance (clinical; intravenous, 10 mg/m2, CL, Sequential schedule, 10 mg/m^2, Day 1, mean (St dev)) was 7600 mL/min and the clearance (clinical; intravenous, 10 mg/m2, CL, Sequential schedule, 10 mg/m^2, Day 5, mean (St dev)) was 6130 mL/min. The Cmax (clinical; intravenous, 10 mg/m2, Cmax, Concurrent schedule, 10 mg/m^2, Day 1, mean (St dev)) was 88.6 ng/mL, the Cmax (clinical; intravenous, 10 mg/m2, Cmax, Concurrent schedule, 10 mg/m^2, Day 5, mean (St dev)) was 62.9 ng/mL and the Cmax (clinical; intravenous, 10 mg/m2, Cmax, Sequential schedule, 10 mg/m^2, Day 1, mean (St dev)) was 57.5 ng/mL. It also gave a Cmax (clinical; intravenous, 10 mg/m2, Cmax, Sequential schedule, 10 mg/m^2, Day 5, mean (St dev)) of 67.5 ng/mL, a half-life (clinical; intravenous, 10 mg/m2, t1/2, Concurrent schedule, 10 mg/m^2, Day 1, mean (St dev)) of 16.2 min and a half-life (clinical; intravenous, 10 mg/m2, t1/2, Concurrent schedule, 10 mg/m^2, Day 5, mean (St dev)) of 16.2 min. The half-life (clinical; intravenous, 10 mg/m2, t1/2, Sequential schedule, 10 mg/m^2, Day 1, mean (St dev)) was 20.4 min, the half-life (clinical; intravenous, 10 mg/m2, t1/2, Sequential schedule, 10 mg/m^2, Day 5, mean (St dev)) was 22.8 min and the AUC(0-inf) (clinical; intravenous, 15 mg/m2, AUCinf, Sequential schedule, 15 mg/m^2, Day 1, mean (St dev)) was 116 ng·h/mL. The AUC(0-inf) (clinical; intravenous, 15 mg/m2, AUCinf, Sequential schedule, 15 mg/m^2, Day 5, mean (St dev)) was 116 ng·h/mL, the AUC(0-t) (clinical; intravenous, 15 mg/m2, AUCt, Sequential schedule, 15 mg/m^2, Day 1, mean (St dev)) was 112 ng·h/mL and the AUC(0-t) (clinical; intravenous, 15 mg/m2, AUCt, Sequential schedule, 15 mg/m^2, Day 5, mean (St dev)) was 114 ng·h/mL. The clearance (clinical; intravenous, 15 mg/m2, CL, Sequential schedule, 15 mg/m^2, Day 1, mean (St dev)) was 5670 mL/min, the clearance (clinical; intravenous, 15 mg/m2, CL, Sequential schedule, 15 mg/m^2, Day 5, mean (St dev)) was 3930 mL/min and the Cmax (clinical; intravenous, 15 mg/m2, Cmax, Sequential schedule, 15 mg/m^2, Day 1, mean (St dev)) was 129 ng/mL. For the same molecule, the Cmax (clinical; intravenous, 15 mg/m2, Cmax, Sequential schedule, 15 mg/m^2, Day 5, mean (St dev)) was 142 ng/mL, the half-life (clinical; intravenous, 15 mg/m2, t1/2, Sequential schedule, 15 mg/m^2, Day 1, mean (St dev)) was 22.8 min and the half-life (clinical; intravenous, 15 mg/m2, t1/2, Sequential schedule, 15 mg/m^2, Day 5, mean (St dev)) was 19.8 min. For the same molecule, the AUC(0-inf) (clinical; intravenous, 20 mg/m2, AUCinf, Sequential schedule, 20 mg/m^2, Day 1, mean (St dev)) was 119 ng·h/mL, the AUC(0-inf) (clinical; intravenous, 20 mg/m2, AUCinf, Sequential schedule, 20 mg/m^2, Day 5, mean (St dev)) was 165 ng·h/mL and the AUC(0-t) (clinical; intravenous, 20 mg/m2, AUCt, Sequential schedule, 20 mg/m^2, Day 1, mean (St dev)) was 115 ng·h/mL. The AUC(0-t) (clinical; intravenous, 20 mg/m2, AUCt, Sequential schedule, 20 mg/m^2, Day 5, mean (St dev)) was 161 ng·h/mL, the clearance (clinical; intravenous, 20 mg/m2, CL, Sequential schedule, 20 mg/m^2, Day 1, mean (St dev)) was 5280 mL/min and the clearance (clinical; intravenous, 20 mg/m2, CL, Sequential schedule, 20 mg/m^2, Day 5, mean (St dev)) was 3920 mL/min. For the same molecule, the Cmax (clinical; intravenous, 20 mg/m2, Cmax, Sequential schedule, 20 mg/m^2, Day 1, mean (St dev)) was 135 ng/mL, the Cmax (clinical; intravenous, 20 mg/m2, Cmax, Sequential schedule, 20 mg/m^2, Day 5, mean (St dev)) was 198 ng/mL and the half-life (clinical; intravenous, 20 mg/m2, t1/2, Sequential schedule, 20 mg/m^2, Day 1, mean (St dev)) was 21.6 min. For the same molecule, the half-life (clinical; intravenous, 20 mg/m2, t1/2, Sequential schedule, 20 mg/m^2, Day 5, mean (St dev)) was 25.2 min, the half-life (clinical; iv, half-life, patients, 1-hour intravenous infusion) was ~20 min and the “Dose proportionality of Cmax and AUC” value (clinical; sequential schedule, increasing doses of decitabine) was “did not produce dose proportional increases”. For the same molecule, the “RP2D (recommended phase II dose)” value [1] was 10 mg/m^2/day.
With `O=C(CCCCCCC(=O)Nc1ccccc1)NO` [vorinostat, suberoylanilide hydroxamic acid] the “Cmax, AUCinf and AUCt, concurrent versus sequential schedule” value ([2]; 200mg BID dose level, p 0.09, 0.004 and 0.0005) was “lower in the concurrent schedule”, the CL/F ([2]; Concurrent schedule, 200 mg BID, day 4 of cycle 1) was 5.3 (2.3) ml/min and the CL/F ([2]; Sequential schedule, 100 mg BID, day 9 of cycle 1) was 4.3(2.3) ml/min. For the same molecule, the CL/F ([2]; Sequential schedule, 200 mg BID, day 9 of cycle 1) was 3(0.7) ml/min, the CL/F ([2]; Sequential schedule, 200 mg TID, day 9 of cycle 1) was 4(3.7) ml/min and the AUC(0-inf) [2, 5] was 446 ng·h/mL. The AUC(0-t) [2, 5] was 424 ng·h/mL, the Cmax [2, 5] was 165 ng/mL and the half-life ([2]; 100 mg, t1/2, Sequential schedule, 100 mg BID, day 9 of cycle 1) was 83.4 min. It also gave an AUC(0-inf) [2, 6] of 708 ng·h/mL, an AUC(0-inf) [2, 7] of 1180 ng·h/mL and an AUC(0-inf) [2, 8] of 1350 ng·h/mL. The AUC(0-t) [2, 6] was 573 ng·h/mL, the AUC(0-t) [2, 9] was 883 ng·h/mL and the AUC(0-t) [2, 7] was 1020 ng·h/mL. It also gave an AUC(0-t) [2, 8] of 1090 ng·h/mL, a Cmax [2, 6] of 214 ng/mL and a Cmax [2, 9] of 227 ng/mL. For the same molecule, the Cmax [2, 7] was 313 ng/mL, the half-life ([2]; 200 mg, t1/2, Concurrent schedule, 200 mg BID, day 4 of cycle 1) was 143 min and the half-life ([2]; 200 mg, t1/2, Sequential schedule, 200 mg BID, day 9 of cycle 1) was 153 min. The half-life ([2]; 200 mg, t1/2, Sequential schedule, 200 mg TID, day 9 of cycle 1) was 103 min, the “Dose proportionality of AUC and Cmax after a single administration” value ([2]; sequential schedule, dose increased from 100 mg to 200 mg) was “increased proportionaly” and the “maximum tolerated dose, monotherapy” value ([3]; patients with hematologic malignancies) was 250 mg orally thrice a day for 14 days every 21 days. The “maximum tolerated dose, monotherapy” value ([3]; patients with solid tumors) was 200 mg orally twice a day continuously and the “RP2D (recommended phase II dose)” value [4] was 200 mg twice daily.
